Data: patent US8202897B2, “Inhibitors of glutaminyl cyclases” (Probiodrug AG, priority 2007, dated 2012)

What was measured:
[1] = molecular target: glutaminyl cyclase (QC) (Homo sapiens, UniProt Q16769); test: QC inhibitor assay (fluorometric/spectrophotometric QC activity assay with inhibitor added)
Chain of glutaminyl cyclase (QC) (Q16769 29-361): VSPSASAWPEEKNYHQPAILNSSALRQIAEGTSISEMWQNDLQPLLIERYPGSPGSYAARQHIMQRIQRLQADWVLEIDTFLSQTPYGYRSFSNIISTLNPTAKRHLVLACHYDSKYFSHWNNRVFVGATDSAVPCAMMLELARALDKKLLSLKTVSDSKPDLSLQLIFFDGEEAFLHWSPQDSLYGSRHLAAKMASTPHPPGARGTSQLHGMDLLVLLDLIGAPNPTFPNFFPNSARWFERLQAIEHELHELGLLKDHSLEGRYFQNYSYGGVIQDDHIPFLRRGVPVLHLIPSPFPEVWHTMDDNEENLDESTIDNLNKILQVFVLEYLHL
Method: All measurements were performed with a BioAssay Reader HTS-7000Plus for microplates (Perkin Elmer) at 30° C. QC activity was evaluated fluorometrically using H-Gln-βNA. The samples consisted of 0.2 mM fluorogenic substrate, 0.25 U pyroglutamyl aminopeptidase (Unizyme, Hørsholm, Denmark) in 0.2 M Tris/HCl, pH 8.0 containing 20 mM EDTA and an appropriately diluted aliquot of QC in a final volume of 250 μl. Excitation/emission wavelengths were 320/410 nm. The assay reactions were initiated by addition of glutaminyl cyclase. QC activity was determined from a standard curve of β-naphthylamine under assay conditions. One unit is defined as the amount of QC catalyzing the formation of 1 μmol pGlu-βNA from H-Gln-βNA per minute under the described conditions.
In a second fluorometric assay, QC was activity determined using H-Gln-AMC as substrate. Reactions were carried out at 30° C. utilizing the NOVOStar reader for microplates (BMG labtechnologies). The samples consisted of varying concentrations of the fluorogenic substrate, 0.1 U pyroglutamyl aminopeptidase (Qiagen) in 0.05 M Tris/HCl, pH 8.0 containing 5 mM EDTA and an appropriately diluted aliquot of QC in a final volume of 250 μl. Excitation/emission wavelengths were 380/460 nm. The assay reactions were initiated by addition of glutaminyl cyclase. […] The kinetic data were evaluated using GraFit software.
Samples consisted of the respective QC substrate, 0.3 mM NADH, 14 mM α-Ketoglutaric acid and 30 U/ml glutamate dehydrogenase in a final volume of 250 μl. […] All samples were measured at 30° C., using either the [sequence]luor Plus or the Sunrise (both from TECAN) reader for microplates. Kinetic data was evaluated using GraFit software.
For inhibitor testing, the sample composition was the same as described above, except of the putative inhibitory compound added. For a rapid test of QC-inhibition, samples contained 4 mM of the respective inhibitor and a substrate concentration at 1 KM. For detailed investigations of the inhibition and determination of Ki-values, influence of the inhibitor on the auxiliary enzymes was investigated first. […] The inhibitory constant was evaluated by fitting the set of progress curves to the general equation for competitive inhibition using GraFit software.

SMILES	IC50 [1]	Ki [1]	melting point
CCCCN/C(=C/[N+](=O)[O-])NCCCn1ccnc1 [Example 1, N-(3-(1H-imidazol-1-yl)propyl)-N-butyl-2-nitroethene-1.1-diamine]	13.2 µM	2.19 µM	–
O=[N+]([O-])/C=C(\NCCCn1ccnc1)Nc1ccc2c(c1)OCO2 [Example 9, N-(1-(3-(1H-imidazol-1-yl)propylamino)-2-nitrovinyl)benzo[d][1.3]dioxol-5-amine]	7.93 µM	0.95 µM	–
COc1ccc(N/C(=C/[N+](=O)[O-])NCCCn2ccnc2)c(OC)c1 [Example 10, N-(1-(3-(1H-imidazol-1-yl)propylamino)-2-nitrovinyl)-2.4-dimethoxy-benzenamine]	8.89 µM	0.92 µM	–
COc1cc(N/C(=C/[N+](=O)[O-])NCCCn2ccnc2)cc(OC)c1OC [Example 11, N-(1-(3-(1H-imidazol-1-yl)propylamino)-2-nitrovinyl)-3.4.5-trimethoxy-benzenamine]	6.41 µM	0.74 µM	41 to 43 °C
